Common to all, as to assay: inhibition of tumour cell growth, NCI panel, 48 h
In assay [1] the test system is NCI-H460 lung.
The test system of assay [2] is RPMI-8226 leukemia.
In assay [3] the test system is RXF 393 renal.
In assay [4] the test system is SF-268 CNS.
Assay [5] concerns SF-295 CNS.
Assay [6] deals with SK-MEL-5 melanoma.
The subject of assay [7] is SN12C renal.
Assay [8] concerns SNB-75 CNS.
In assay [9] the test system is U251 CNS.
For assay [10], the system named is SF-539 CNS.

The structures appear in SMILES notation.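 Step 1: Grow cells in 96-well plates. Step 2: Expose to compound for 48 hours at 5 concentrations. Step 3: Interpolate endpoints linearly; if unreached, use highest concentration. GI50 marks 50% less growth. TGI: concentration producing complete growth inhibition.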

With `CC(=O)OCC1OC(O[C@@H]2C[C@H]3C(C)(C)[C@H](OC(C)=O)CC[C@]3(C)[C@H]3CC[C@@H]4[C@]5(CC[C@@]4(C)[C@@]32C)O[C@@H]([C@H](O)C(C)(C)O)C[C@@H]5C)C(O)C(O)C1O` (stereo partly drawn), the GI50 in assay [1] was 6540 nM; in [2] it was 3370 nM; in [4], 9.34 µM; in assay [5] it was 6430 nM; in [6], 10700 nM; in assay [7] it was 11.1 µM. In assay [8], the GI50 was 5.13 µM. Also, the TGI in assay [1] was found to be 20.8 µM; in assay [2] it was 19 µM; in assay [3] it was 16.1 µM; in assay [4] it was 23.7 µM; in [5] it was 19.2 µM; in assay [6] it was 22.5 µM. Further, the TGI was 24 µM in assay [7], 18.4 µM in assay [8] and 19.1 µM in assay [9].
With `CC(C)(CN1CCCCC1)C(=O)CC(SCCS(=O)(=O)O)c1ccc(Cl)c(Cl)c1` (stereo not drawn), the TGI in assay [1] is 11.9 µM; in assay [2] it was 7.03 µM; in assay [3] it was 11.2 µM; in [4] it was 15.1 µM; in assay [5] it was 15.8 µM; in assay [10], 6.23 µM. Besides, the TGI in [6] was determined as 21.1 µM; in [9], 19.3 µM.
As to `O=C(O)c1oc2ccc([N+](=O)[O-])c3c2c1CCC3`, the TGI in [1], in [3], in [4], in assay [5], in assay [10] and in [7] was > 100 µM throughout. In addition, the TGI in [8] and in assay [9] was > 100 µM each time.
As for `O=C(O)CCN1C(=O)/C(=C/C(Cl)=C/c2ccccc2)SC1=S`, the GI50 in assay [1] was 3210 nM; in [3], 1690 nM; in [4] it was 3.15 µM; in assay [5] it was 2700 nM; in assay [10], 2670 nM; in assay [6] it was 1840 nM. In addition, the GI50 in assay [7] was 2.67 µM; in assay [8] it was 1.79 µM; in assay [9], 1660 nM. Moreover, the TGI in [1] stood at 10.8 µM; in assay [3] it was 3.38 µM; in [4] it was 20.2 µM; in assay [5], 8.05 µM; in assay [10], 7.12 µM; in assay [6], 3.47 µM. The TGI in assay [7] turned out to be 9.41 µM; in assay [8], 10.1 µM; in assay [9], 3.16 µM.
As for `O=C1CCC(c2ccccc2)(c2ccccc2)CC1`, the TGI in assay [1], in [2], in assay [3], in assay [4], in [5] and in assay [6] was > 100 µM in each case. The TGI in [7], in assay [8] and in [9] was > 100 µM throughout.
As for `CC(=O)Nc1[nH]c(=O)[nH]c(=O)c1N(C(C)=O)C(C)=O`, the TGI in assay [1], in assay [2], in assay [3], in assay [4], in assay [5] and in [10] was > 100 µM in each case. The TGI in assay [6], in [7] and in [9] was > 100 µM each time.
For the molecule `ClCc1ccc(Cn2cnc3ncnc(Cl)c32)cc1`, the GI50 was 1780 nM in assay [1]; 1280 nM in [2]; 1670 nM in assay [3]; 1.64 µM in assay [4]; 2060 nM in [5]; 2080 nM in assay [10]. In addition, the GI50 in [6] was 2820 nM; in [7], 3.61 µM; in assay [9] it was 1090 nM. Besides, the TGI in assay [1] came to 4.31 µM; in [2], 2.67 µM; in assay [3], 4.14 µM; in assay [4], 3.43 µM; in assay [5], 5.07 µM; in [10] it was 3.74 µM. For the same molecule, the TGI amounted to 12.1 µM in assay [6], 14.9 µM in assay [7] and 2.29 µM in assay [9].
On to `CC1=NN(C(=O)Cc2ccccc2)C(=O)/C1=C\c1cccc(O)c1`, for which the TGI in assay [1], in [2], in assay [4], in [5], in [10] and in [6] was > 100 µM throughout. Besides, the TGI in assay [7], in assay [8] and in [9] was > 100 µM each time.
`CCCCCCCCSC(SCCCCCCCC)=C1C(=O)N(c2ccccc2)N=C1C`: the TGI was > 100 µM in [1]; 61.9 µM in [2]; > 100 µM in assay [3]; > 100 µM in assay [4]; > 100 µM in assay [5]; > 100 µM in assay [6]. Also, the TGI is > 100 µM in assay [7], > 100 µM in assay [8] and 34 µM in [9].
As for `NC(=O)Cn1c(=O)[nH]c(=O)c2[nH]cnc21`, the TGI in assay [1], in [3], in [4], in [10], in assay [6] and in assay [7] was > 100 µM throughout. Further, the TGI in assay [8] and in assay [9] was > 100 µM each time.
Take `O=C1C=Cc2noc3cccc1c23`: the TGI came out at 5.67 µM in assay [3]; 12.4 µM in assay [4]; 32.8 µM in assay [5]; 30.2 µM in assay [10]; 24.2 µM in assay [6]; 27.3 µM in assay [7]. Also, the values for the TGI in [8] and in [9] were 25.8 µM and 26.4 µM, respectively.
In the case of `C=C(C)[C@@H]1CC[C@]2(C#N)CC[C@]3(C)[C@H](CC[C@@H]4[C@@]5(C)CCCNC(C)(C)[C@@H]5CC[C@]43C)[C@@H]12`, the GI50 in [1] was 1880 nM; in assay [3] it was 1700 nM; in assay [4] it was 3.11 µM; in assay [5], 1700 nM; in assay [10], 1670 nM; in [6], 1710 nM. Besides, the results for the GI50 in assay [7] and in assay [9] were 1.77 µM and 1750 nM, respectively. Moreover, the TGI in [1] was determined as 3.54 µM; in assay [3], 3.16 µM; in assay [4], 10.4 µM; in assay [5] it was 3.1 µM; in [10], 3.11 µM; in assay [6] it was 3.08 µM. Besides, the TGI in assay [7] is 3.25 µM; in [9] it was 3.13 µM.
Take `CCCCN=C(OC1C=CCCC1)SC` (stereo not drawn): the TGI in [2], in assay [4], in [5], in assay [6], in assay [7] and in assay [8] was > 100 µM each time. Moreover, in [9], the TGI was > 100 µM.

(Values after PubChem BioAssay (NCI).)
